In PubChem BioAssay (NCI):
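Where inhibition never reached the appropriate level, the endpoint shown equals the highest concentration tested. Otherwise, values were interpolated linearly from a five-concentration, 48-hour dose response in 96-well plates. Here, GI50 denotes the concentration required for 50% inhibition of growth. TGI denotes the concentration required for complete inhibition of growth.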

How the values were obtained:
Assay in all cases: growth of human tumour cells (NCI), 48 h
[1] = tested on: COLO 205 colon
[2] = tested on: IGROV1 ovarian
[3] = tested on: TK-10 renal
[4] = tested on: UACC-257 melanoma
[5] = tested on: CAKI-1 renal
[6] = tested on: NCI-H522 lung
[7] = tested on: HCC-2998 colon
[8] = tested on: ACHN renal
[9] = tested on: NCI-H23 lung
[10] = tested on: HCT-116 colon
[11] = tested on: HOP-92 NSCLC
[12] = tested on: NCI-H226 lung
[13] = tested on: SNB-19 CNS
[14] = tested on: SW-620 colon
[15] = tested on: KM20L2 colon
[16] = tested on: M14 melanoma
[17] = tested on: EKVX NSCLC
[18] = tested on: SF-295 CNS
[19] = tested on: HT29 colon
[20] = tested on: KM12 colon
[21] = tested on: HCT-15 colon
[22] = tested on: HOP-62 NSCLC
[23] = tested on: NCI-H460 lung
[24] = tested on: UO-31 renal
[25] = tested on: UACC-62 melanoma
[26] = tested on: OVCAR-5 ovarian
[27] = tested on: LOX IMVI melanoma
[28] = tested on: OVCAR-3 ovarian
[29] = tested on: OVCAR-8 ovarian
[30] = tested on: A549 NSCLC
[31] = tested on: SR leukemia
[32] = tested on: OVCAR-4 ovarian
[33] = tested on: SNB-75 CNS
[34] = tested on: HL-60(TB) leukemia
[35] = tested on: SK-MEL-2 melanoma
[36] = tested on: SF-268 CNS
[37] = tested on: SK-OV-3 ovarian
[38] = tested on: SF-539 CNS
[39] = tested on: RXF 393 renal
[40] = tested on: MCF7 breast
[41] = tested on: RPMI-8226 leukemia
[42] = tested on: MDA-MB-435
[43] = tested on: DU-145 prostate
[44] = tested on: SK-MEL-28 melanoma
[45] = tested on: HS 578T breast
[46] = tested on: K-562 leukemia
[47] = tested on: SN12C renal
[48] = tested on: CCRF-CEM leukemia
[49] = tested on: PC-3 prostate
[50] = tested on: SK-MEL-5 melanoma
[51] = tested on: MALME-3M melanoma
[52] = tested on: MDA-MB-231 breast
[53] = tested on: MOLT-4 leukemia
[54] = tested on: BT-549 breast
[55] = tested on: NCI/ADR-RES ovarian
[56] = tested on: T-47D breast
[57] = tested on: U251 CNS
[58] = tested on: MDA-N
[59] = tested on: A498 renal
[60] = tested on: 786-0 renal

O=C(N/N=C/c1cc(Cl)cc(Cl)c1[O-])c1ccccc1O.O=C(N/N=C/c1cc(Cl)cc(Cl)c1[O-])c1ccccc1O.[Cl-].[Fe+3]
GI50 [1]: 19.4 µM
TGI [1]: 44.4 µM
TGI [2]: 48.4 µM
TGI [3]: > 100 µM
TGI [4]: 51.2 µM
TGI [5]: > 100 µM
TGI [6]: 31.5 µM
TGI [7]: 23.5 µM
TGI [8]: 38.5 µM
GI50 [9]: 7.73 µM
TGI [9]: 25.7 µM
GI50 [10]: 5.78 µM
TGI [10]: 18.9 µM
GI50 [11]: 1.95 µM
TGI [11]: 7.18 µM
TGI [12]: 20.5 µM
TGI [13]: 22.7 µM
TGI [14]: 29.9 µM
GI50 [15]: 10.7 µM
TGI [15]: 24 µM
TGI [16]: 35.3 µM
GI50 [17]: 29.3 µM
TGI [17]: 88.3 µM
TGI [18]: 22.4 µM
TGI [19]: 34.8 µM
GI50 [20]: 12.6 µM
TGI [20]: 37.9 µM
TGI [21]: 18.7 µM
TGI [22]: 36.2 µM
TGI [23]: 36 µM
TGI [24]: 31.7 µM
TGI [25]: 33.6 µM
TGI [26]: 26 µM
TGI [27]: 30.9 µM
TGI [28]: 27 µM
TGI [29]: 25.9 µM
GI50 [30]: 10.2 µM
TGI [30]: 63.8 µM
TGI [31]: 25.3 µM
TGI [32]: 26.6 µM
TGI [33]: 60.4 µM
TGI [34]: 5.22 µM
GI50 [35]: 17.1 µM
TGI [35]: 37.1 µM
TGI [36]: 69.8 µM
TGI [37]: 29.2 µM
GI50 [38]: 10.5 µM
TGI [38]: 27.9 µM
TGI [39]: 23.7 µM

ClC1=C(Cl)C(Cl)(Cl)SS1
TGI [40]: > 10 µM
TGI [1]: 3.73 µM
TGI [2]: > 10 µM
TGI [3]: > 10 µM
TGI [41]: 6.73 µM
TGI [4]: > 7.95 µM
TGI [42]: > 10 µM
TGI [5]: 6.76 µM
TGI [6]: > 6.85 µM
TGI [7]: > 10 µM
TGI [43]: > 10 µM
TGI [8]: > 10 µM
TGI [9]: > 10 µM
TGI [10]: > 6.72 µM
TGI [11]: > 8.63 µM
TGI [44]: > 10 µM
TGI [12]: > 10 µM
TGI [13]: > 10 µM
TGI [14]: 5.82 µM
TGI [16]: > 10 µM
TGI [17]: > 10 µM
TGI [45]: > 10 µM
TGI [46]: > 7.82 µM
TGI [47]: > 10 µM
TGI [18]: > 10 µM
TGI [48]: > 8 µM
TGI [49]: > 10 µM
TGI [50]: > 10 µM
TGI [19]: > 10 µM
TGI [20]: > 10 µM
TGI [21]: > 10 µM
TGI [22]: > 10 µM
TGI [23]: > 10 µM
TGI [51]: > 6.61 µM
TGI [24]: > 6.06 µM
TGI [52]: > 10 µM
TGI [25]: > 10 µM
TGI [26]: > 10 µM
TGI [27]: > 10 µM
TGI [28]: > 9.5 µM
TGI [53]: 3.61 µM
TGI [29]: > 10 µM
TGI [54]: > 10 µM
TGI [30]: > 10 µM
TGI [31]: 5.35 µM
TGI [55]: > 10 µM
TGI [32]: 9.81 µM
TGI [33]: > 10 µM
TGI [56]: > 10 µM
TGI [57]: > 10 µM
TGI [34]: > 7.32 µM
TGI [58]: > 10 µM
TGI [35]: > 10 µM
TGI [36]: > 10 µM
TGI [37]: > 10 µM
TGI [38]: > 10 µM
TGI [59]: > 10 µM
TGI [39]: > 10 µM
TGI [60]: > 6.03 µM

CCOC(=O)/C(SC#N)=C(/N)N1CCCC1
TGI [40]: > 100 µM
TGI [1]: > 100 µM
TGI [2]: > 100 µM
TGI [3]: > 100 µM
TGI [41]: > 100 µM
TGI [4]: > 100 µM
TGI [42]: > 100 µM
TGI [5]: > 100 µM
TGI [6]: > 100 µM
TGI [7]: > 100 µM
TGI [43]: > 100 µM
TGI [8]: > 100 µM
TGI [9]: > 100 µM
TGI [10]: > 100 µM
TGI [11]: > 100 µM
TGI [44]: > 100 µM
TGI [12]: > 100 µM
TGI [13]: > 100 µM
TGI [14]: > 100 µM
TGI [16]: > 100 µM
TGI [17]: > 100 µM
TGI [45]: > 100 µM
TGI [46]: > 100 µM
TGI [47]: > 100 µM
TGI [18]: > 100 µM
TGI [48]: > 100 µM
TGI [49]: > 100 µM
TGI [50]: > 100 µM
TGI [19]: > 100 µM
TGI [20]: > 100 µM
TGI [21]: > 100 µM
TGI [22]: > 100 µM
TGI [23]: > 100 µM
TGI [51]: > 100 µM
TGI [24]: > 100 µM
TGI [52]: > 100 µM
TGI [25]: > 100 µM
TGI [26]: > 100 µM
TGI [27]: > 100 µM
TGI [28]: > 100 µM
TGI [53]: > 100 µM
TGI [29]: > 100 µM
TGI [54]: > 100 µM
TGI [30]: > 100 µM
TGI [31]: > 100 µM
TGI [55]: > 100 µM
TGI [32]: > 100 µM
TGI [33]: > 100 µM
TGI [56]: > 100 µM
TGI [57]: > 100 µM
TGI [34]: > 100 µM
TGI [58]: > 100 µM
TGI [35]: > 100 µM
TGI [36]: > 100 µM
TGI [37]: > 100 µM
TGI [38]: > 100 µM
TGI [59]: > 100 µM
TGI [39]: > 100 µM
TGI [60]: > 100 µM

C/C=C/[C@@H](C(=O)OC)N1C(=O)c2ccccc2[C@H]1O
TGI [40]: > 100 µM
TGI [1]: > 100 µM
TGI [2]: > 100 µM
TGI [3]: > 100 µM
TGI [41]: > 100 µM
TGI [4]: > 100 µM
TGI [42]: > 100 µM
TGI [5]: > 100 µM
TGI [6]: > 100 µM
TGI [7]: > 100 µM
TGI [43]: > 100 µM
TGI [8]: > 100 µM
TGI [9]: > 100 µM
TGI [10]: > 100 µM
TGI [11]: > 100 µM
TGI [44]: > 100 µM
TGI [12]: > 100 µM
TGI [13]: > 100 µM
TGI [14]: > 100 µM
TGI [16]: > 100 µM
TGI [17]: > 100 µM
TGI [45]: > 100 µM
TGI [46]: > 100 µM
TGI [47]: > 100 µM
TGI [18]: > 100 µM
TGI [48]: > 100 µM
TGI [49]: > 100 µM
TGI [50]: > 100 µM
TGI [19]: > 100 µM
TGI [20]: > 100 µM
TGI [21]: > 100 µM
TGI [22]: > 100 µM
TGI [23]: > 100 µM
TGI [51]: > 100 µM
TGI [24]: > 100 µM
TGI [52]: > 100 µM
TGI [25]: > 100 µM
TGI [26]: > 100 µM
TGI [27]: > 100 µM
TGI [28]: > 100 µM
TGI [53]: > 100 µM
TGI [29]: > 100 µM
TGI [54]: > 100 µM
TGI [30]: > 100 µM
TGI [31]: > 100 µM
TGI [55]: > 100 µM
TGI [32]: > 100 µM
TGI [33]: > 100 µM
TGI [56]: > 100 µM
TGI [57]: > 100 µM
TGI [34]: > 100 µM
TGI [58]: > 100 µM
TGI [35]: > 100 µM
TGI [36]: > 100 µM
TGI [37]: > 100 µM
TGI [38]: > 100 µM
TGI [59]: > 100 µM
TGI [39]: > 100 µM
TGI [60]: > 100 µM

O=S(/C=C/C=C/S(=O)(=O)c1ccccc1)c1ccccc1 (stereo not given)
TGI [40]: 3.17 µM
TGI [1]: 3.48 µM
TGI [2]: > 10 µM
TGI [3]: 6.08 µM
TGI [41]: 3.06 µM
TGI [4]: 3.77 µM
TGI [42]: 5.96 µM
TGI [5]: 3.43 µM
TGI [6]: 3.17 µM
TGI [7]: > 10 µM
TGI [43]: > 7 µM
TGI [8]: > 9.31 µM
TGI [9]: 4.39 µM
TGI [10]: 2.84 µM
TGI [11]: 4.87 µM
TGI [44]: 4.35 µM
TGI [12]: > 10 µM
TGI [13]: > 10 µM
TGI [14]: 2.67 µM
TGI [16]: 1.56 µM
TGI [17]: > 10 µM
TGI [45]: > 10 µM
TGI [46]: 2.83 µM
TGI [47]: 3.94 µM
TGI [18]: > 10 µM
TGI [48]: 2.27 µM
TGI [49]: > 10 µM
TGI [50]: 3.91 µM
TGI [19]: > 10 µM
TGI [20]: > 4.88 µM
TGI [21]: 3.97 µM
TGI [22]: > 10 µM
TGI [23]: > 10 µM
TGI [51]: 4.22 µM
TGI [24]: 5.64 µM
TGI [52]: 8.8 µM
TGI [25]: > 7.77 µM
TGI [26]: > 10 µM
TGI [27]: > 3.89 µM
TGI [28]: 3.44 µM
TGI [53]: 4.11 µM
TGI [29]: 3.7 µM
TGI [54]: > 10 µM
TGI [30]: > 10 µM
TGI [31]: 3.07 µM
TGI [55]: 5.02 µM
TGI [32]: 4.33 µM
TGI [33]: > 10 µM
TGI [56]: > 4.97 µM
TGI [57]: > 10 µM
TGI [34]: 0.909 µM
TGI [58]: > 5.51 µM
TGI [35]: 4.2 µM
TGI [36]: > 9.08 µM
TGI [37]: > 10 µM
TGI [38]: > 10 µM
TGI [59]: > 10 µM
TGI [39]: 3.31 µM
TGI [60]: 1.61 µM
